For orientation: inhibition means how much of the control response was suppressed.

From patent US9834550B2, “Pyridopyrimidinone compounds for modulating the catalytic activity of histone lysine demethylases (KDMs)” (Dong-A Socio Holdings Co., Ltd., priority 2014, dated 2017) come the findings set out here.

For this experiment, the target named is T1, Recombinant human JARID1B/KDM5B (Homo sapiens, UniProt Q9UGL1).
T1 construct: purchased Active Motif 31432; host or cells: Sf9 insect cells
The experiment is described as follows: LANCE Ultra TR-FRET demethylase assay with FLAG-tagged JARID1B. It counts as biochemical. The conditions noted are these: 100 nM compound; 500 nM biotinylated H3K4me3 peptide substrate. In short, it runs like this: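 Sf9-expressed N-FLAG full-length JARID1B (10–30 nM) preincubated 5 min with compound at 20, 1 or 0.1 uM (1% DMSO), then 500 nM biotin-H3K4me3 peptide, 500 uM 2-OG, 25 uM Fe(II), 2 mM ascorbate added; 30 min at room temperature in Hepes pH 7.5. H3K4me2/1 product read by TR-FRET 665/590 ratio.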

Molecules are shown by their SMILES.

T1 sequence (Q9UGL1 whole entry): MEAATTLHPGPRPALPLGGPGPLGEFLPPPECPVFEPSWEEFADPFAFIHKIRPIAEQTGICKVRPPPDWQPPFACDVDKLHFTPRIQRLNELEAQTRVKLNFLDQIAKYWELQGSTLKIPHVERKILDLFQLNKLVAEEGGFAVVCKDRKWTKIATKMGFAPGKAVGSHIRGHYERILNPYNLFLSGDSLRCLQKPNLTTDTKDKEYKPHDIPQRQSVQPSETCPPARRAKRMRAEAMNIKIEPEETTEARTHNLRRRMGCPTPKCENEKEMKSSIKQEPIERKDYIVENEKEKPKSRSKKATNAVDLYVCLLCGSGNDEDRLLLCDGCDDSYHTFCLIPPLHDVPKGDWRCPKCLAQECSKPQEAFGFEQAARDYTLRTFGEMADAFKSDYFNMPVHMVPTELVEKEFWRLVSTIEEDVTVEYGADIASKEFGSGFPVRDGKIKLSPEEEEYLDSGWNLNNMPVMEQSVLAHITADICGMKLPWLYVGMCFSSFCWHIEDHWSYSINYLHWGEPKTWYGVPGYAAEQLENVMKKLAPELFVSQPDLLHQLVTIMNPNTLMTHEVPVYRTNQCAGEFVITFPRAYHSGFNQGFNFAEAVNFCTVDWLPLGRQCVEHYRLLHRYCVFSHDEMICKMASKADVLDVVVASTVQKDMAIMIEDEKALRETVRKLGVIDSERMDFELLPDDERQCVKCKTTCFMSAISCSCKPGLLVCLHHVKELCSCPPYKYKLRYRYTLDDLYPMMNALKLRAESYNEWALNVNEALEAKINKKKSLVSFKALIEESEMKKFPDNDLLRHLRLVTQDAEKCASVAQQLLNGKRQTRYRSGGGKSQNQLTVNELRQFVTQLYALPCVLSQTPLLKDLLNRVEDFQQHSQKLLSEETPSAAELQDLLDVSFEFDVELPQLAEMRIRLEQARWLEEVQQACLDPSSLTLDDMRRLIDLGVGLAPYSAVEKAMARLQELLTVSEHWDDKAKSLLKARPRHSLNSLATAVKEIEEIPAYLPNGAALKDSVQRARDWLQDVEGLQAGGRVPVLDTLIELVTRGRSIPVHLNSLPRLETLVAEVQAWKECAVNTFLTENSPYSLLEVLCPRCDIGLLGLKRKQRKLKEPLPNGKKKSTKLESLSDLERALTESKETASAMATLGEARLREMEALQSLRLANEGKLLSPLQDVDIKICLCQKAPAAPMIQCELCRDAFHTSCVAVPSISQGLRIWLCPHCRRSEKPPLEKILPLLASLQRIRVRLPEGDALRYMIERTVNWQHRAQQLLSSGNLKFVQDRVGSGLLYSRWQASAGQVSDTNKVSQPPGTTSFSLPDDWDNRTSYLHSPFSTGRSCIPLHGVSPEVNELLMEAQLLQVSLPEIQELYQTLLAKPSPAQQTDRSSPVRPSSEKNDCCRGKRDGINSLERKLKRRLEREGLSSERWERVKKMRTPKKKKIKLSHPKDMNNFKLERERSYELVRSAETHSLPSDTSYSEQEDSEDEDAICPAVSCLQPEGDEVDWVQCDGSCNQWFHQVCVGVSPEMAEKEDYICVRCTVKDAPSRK

On to `O=c1[nH]c(COc2ccc(Cc3ccccc3)cc2)nc2c(CNC[C@@H]3CCCNC3)nccc12` [Example 154, (R)-2-((4-benzylphenoxy)methyl)-8-(((piperidin-3-ylmethyl)amino)methyl)pyrido[3,4-d]pyrimidin-4(3H)-one], for which the inhibition at 0.1 µM is greater than 50%.

Turning to `N[C@H]1CC[C@H](NCc2nccc3c(=O)[nH]c(COc4ccc(Cc5ccccc5)cc4)nc23)CC1` [Example 155, 8-((((1r,4r)-4-aminocyclohexyl)amino)methyl)-2-((4-benzylphenoxy)methyl)pyrido[3,4-d]pyrimidin-4(3H)-one], the inhibition at 0.1 µM was in the range of 20 to 50%. The value for `O=c1[nH]c(COc2ccc(Cc3ccccc3)cc2)nc2c(CNCCN3CCOCC3)nccc12` [Example 157, 2-((4-benzylphenoxy)methyl)-8-(((2-morpholinoethyl)amino)methyl)pyrido[3,4-d]pyrimidin-4(3H)-one] was 20 to 50%. Regarding `O=c1[nH]c(COc2ccc(F)c(Cl)c2)nc2c(CNC[C@H]3CCNC3)nccc12` [Example 158, (S)-2-((3-chloro-4-fluorophenoxy)methyl)-8-(((pyrrolidin-3-ylmethyl)amino)methyl)pyrido[3,4-d]pyrimidin-4(3H)-one], the inhibition at 0.1 µM was greater than 50%. The same measure for `CN1CCC(CNCc2nccc3c(=O)[nH]c(COc4ccc(F)c(Cl)c4)nc23)C1` (centres unmarked) [Example 159, 2-((3-chloro-4-fluorophenoxy)methyl)-8-((((1-methylpyrrolidin-3-yl)methyl)amino)methyl)pyrido[3,4-d]pyrimidin-4(3H)-one]: greater than 50%. Take `CN1CCC(CNCc2nccc3c(=O)[nH]c(COc4ccc(F)c(Cl)c4)nc23)CC1` [Example 160, 2-((3-chloro-4-fluorophenoxy)methyl)-8-((((1-methylpiperidin-4-yl)methyl)amino)methyl)pyrido[3,4-d]pyrimidin-4(3H)-one]: the inhibition at 0.1 µM was greater than 50%. Regarding `O=c1[nH]c(COc2ccc(F)c(Cl)c2)nc2c(CNCC3CCOCC3)nccc12` [Example 161, 2-((3-chloro-4-fluorophenoxy)methyl)-8-((((tetrahydro-2H-pyran-4-yl)methyl)amino)methyl)pyrido[3,4-d]pyrimidin-4(3H)-one], the inhibition at 0.1 µM is less than 20%.

`O=c1[nH]c(COc2ccc(F)c(Cl)c2)nc2c(CNCC3CCCOC3)nccc12` (centres unmarked) [Example 162, 2-((3-chloro-4-fluorophenoxy)methyl)-8-((((tetrahydro-2H-pyran-3-yl)methyl)amino)methyl)pyrido[3,4-d]pyrimidin-4(3H)-one]: the inhibition at 0.1 µM was less than 20%. In the case of `O=c1[nH]c(COc2ccc(F)c(Cl)c2)nc2c(CNCC3CCOC3)nccc12` (centres unmarked) [Example 163, 2-((3-chloro-4-fluorophenoxy)methyl)-8-((((tetrahydrofuran-3-yl)methyl)amino)methyl)pyrido[3,4-d]pyrimidin-4(3H)-one], the inhibition at 0.1 µM was less than 20%. Take `O=c1[nH]c(COc2ccc(F)c(Cl)c2)nc2c(CNCCN3CCOCC3)nccc12` [Example 164, 2-((3-chloro-4-fluorophenoxy)methyl)-8-(((2-morpholinoethyl)amino)methyl)pyrido[3,4-d]pyrimidin-4(3H)-one]: the inhibition at 0.1 µM fell in the range of 20 to 50%. The same measure for `O=c1[nH]c(COc2ccc(F)c(Cl)c2)nc2c(CNCCCn3ccnc3)nccc12` [Example 165, 8-(((3-(1H-imidazol-1-yl)propyl)amino)methyl)-2-((3-chloro-4-fluorophenoxy)methyl)pyrido[3,4-d]pyrimidin-4(3H)-one]: greater than 50%; for `Cc1cnc(CNCc2nccc3c(=O)[nH]c(COc4ccc(F)c(Cl)c4)nc23)cn1` [Example 166, 2-((3-chloro-4-fluorophenoxy)methyl)-8-((((5-methylpyrazin-2-yl)methyl)amino)methyl)pyrido[3,4-d]pyrimidin-4(3H)-one]: 20 to 50%; for `CC(C)N1CCC(CNCc2nccc3c(=O)[nH]c(COc4ccc(F)c(Cl)c4)nc23)CC1` [Example 168, 2-((3-chloro-4-fluorophenoxy)methyl)-8-((((1-isopropylpiperidin-4-yl)methyl)amino)methyl)pyrido[3,4-d]pyrimidin-4(3H)-one]: greater than 50%. The same measure for `O=c1[nH]c(COc2ccc(F)c(Cl)c2)nc2c(CNCC3CCN(C4CCCC4)CC3)nccc12` [Example 169, 2-((3-chloro-4-fluorophenoxy)methyl)-8-((((1-cyclopentylpiperidin-4-yl)methyl)amino)methyl)pyrido[3,4-d]pyrimidin-4(3H)-one]: greater than 50%; for `O=c1[nH]c(COc2ccc(F)c(Cl)c2)nc2c(CNCc3ccccn3)nccc12` [Example 170, 2-((3-chloro-4-fluorophenoxy)methyl)-8-(((pyridin-2-ylmethyl)amino)methyl)pyrido[3,4-d]pyrimidin-4(3H)-one]: 20 to 50%.

For the compound `O=c1[nH]c(COc2ccc(F)c(Cl)c2)nc2c(CNCc3ccco3)nccc12` [Example 171, 2-((3-chloro-4-fluorophenoxy)methyl)-8-(((furan-2-ylmethyl)amino)methyl)pyrido[3,4-d]pyrimidin-4(3H)-one], the inhibition at 0.1 µM fell in the range of 20 to 50%. The value for `O=c1[nH]c(COc2ccc(F)c(Cl)c2)nc2c(CNCc3cccnc3)nccc12` [Example 172, 2-((3-chloro-4-fluorophenoxy)methyl)-8-(((pyridin-3-ylmethyl)amino)methyl)pyrido[3,4-d]pyrimidin-4(3H)-one] was greater than 50%; that for `O=c1[nH]c(COc2ccc(F)c(Cl)c2)nc2c(CNCc3ccncc3)nccc12` [Example 173, 2-((3-chloro-4-fluorophenoxy)methyl)-8-(((pyridin-4-ylmethyl)amino)methyl)pyrido[3,4-d]pyrimidin-4(3H)-one] was 20 to 50%. With `CN(C)C(=O)c1ccc(CNCc2nccc3c(=O)[nH]c(COc4ccc(F)c(Cl)c4)nc23)o1` [Example 174, 5-((((2-((3-chloro-4-fluorophenoxy)methyl)-4-oxo-3,4-dihydropyrido[3,4-d]pyrimidin-8-yl)methyl)amino)methyl)-N,N-dimethylfuran-2-carboxamide], the inhibition at 0.1 µM is 20 to 50%.

With `Cc1nccn1CCNCc1nccc2c(=O)[nH]c(COc3ccc(F)c(Cl)c3)nc12` [Example 175, 2-((3-chloro-4-fluorophenoxy)methyl)-8-(((2-(2-methyl-1H-imidazol-1-yl)ethyl)amino)methyl)pyrido[3,4-d]pyrimidin-4(3H)-one], the inhibition at 0.1 µM lay within 20 to 50%. Turning to `O=c1[nH]c(COc2ccc(F)c(Cl)c2)nc2c(CNCCc3cccs3)nccc12` [Example 176, 2-((3-chloro-4-fluorophenoxy)methyl)-8-(((2-(thiophen-2-yl)ethyl)amino)methyl)pyrido[3,4-d]pyrimidin-4(3H)-one], the inhibition at 0.1 µM is 20 to 50%. The same measure for `Cc1cc(CNCc2nccc3c(=O)[nH]c(COc4ccc(F)c(Cl)c4)nc23)on1` [Example 177, 2-((3-chloro-4-fluorophenoxy)methyl)-8-((((3-methylisoxazol-5-yl)methyl)amino)methyl)pyrido[3,4-d]pyrimidin-4(3H)-one]: 20 to 50%. The value for `CN1CCOC(CNCc2nccc3c(=O)[nH]c(COc4ccc(F)c(Cl)c4)nc23)C1` (centres unmarked) [Example 178, 2-((3-chloro-4-fluorophenoxy)methyl)-8-((((4-methylmorpholin-2-yl)methyl)amino)methyl)pyrido[3,4-d]pyrimidin-4(3H)-one] was 20 to 50%.
